Results: ChEMBL document CHEMBL4649987, “Benzoisoquinolinediones as Potent and Selective Inhibitors of BRPF2 and TAF1/TAF1L Bromodomains” (ACS Chem Biol, 2017)
Where “and” joins values, the source holds several entries; their conditions need not be identical. Equal values may be shown once.

Legend:
[1] = target: E3 ubiquitin-protein ligase TRIM33 (Homo sapiens) (UniProt Q9UPN9); details: Compound concentration […], Protein concentration 200.0 uM
[2] = target: Histone-lysine N-methyltransferase ASH1L (Homo sapiens) (UniProt Q9NR48); details: Compound concentration 10.0 uM, Protein concentration 2.0 uM
[3] = target: ATPase family AAA domain-containing protein 2 (Homo sapiens) (UniProt Q6PL18); details: Compound concentration 10.0 uM, Protein concentration 2.0 uM
[4] = target: ATPase family AAA domain-containing protein 2B (Homo sapiens) (UniProt Q9ULI0); details: Compound concentration 10.0 uM, Protein concentration 2.0 uM
[5] = target: Bromodomain adjacent to zinc finger domain protein 1A (Homo sapiens) (UniProt Q9NRL2); details: Compound concentration 10.0 uM, Protein concentration 2.0 uM
[6] = target: Tyrosine-protein kinase BAZ1B (Homo sapiens) (UniProt Q9UIG0); details: Compound concentration 10.0 uM, Protein concentration 2.0 uM
[7] = target: Bromodomain adjacent to zinc finger domain protein 2A (Homo sapiens) (UniProt Q9UIF9); details: Compound concentration 10.0 uM, Protein concentration 2.0 uM
[8] = target: Bromodomain adjacent to zinc finger domain protein 2B (Homo sapiens) (UniProt Q9UIF8); details: Compound concentration 10.0 uM, Protein concentration 2.0 uM
[9] = target: Nucleosome-remodeling factor subunit BPTF (Homo sapiens) (UniProt Q12830); details: Compound concentration 10.0 uM, Protein concentration 2.0 uM
[10] = target: Bromodomain-containing protein 2 (Homo sapiens) (UniProt P25440); details: Compound concentration 10.0 uM, Protein concentration 2.0 uM
[11] = target: Bromodomain-containing protein 2 (Homo sapiens) (UniProt P25440); details: Compound concentration 10.0 uM, Protein concentration 2.0 uM; remark: listed apart in the source
[12] = target: Bromodomain-containing protein 3 (Homo sapiens) (UniProt Q15059); details: Compound concentration 10.0 uM, Protein concentration 2.0 uM
[13] = target: Bromodomain-containing protein 3 (Homo sapiens) (UniProt Q15059); details: Compound concentration 10.0 uM, Protein concentration 2.0 uM; remark: listed apart in the source
[14] = target: Bromodomain-containing protein 4 (Homo sapiens) (UniProt O60885); details: Compound concentration 10.0 uM, Protein concentration 2.0 uM
[15] = target: Bromodomain-containing protein 7 (Homo sapiens) (UniProt Q9NPI1); details: Compound concentration 10.0 uM, Protein concentration 2.0 uM
[16] = target: Bromodomain-containing protein 9 (Homo sapiens) (UniProt Q9H8M2); details: Compound concentration 10.0 uM, Protein concentration 2.0 uM
[17] = target: Bromodomain testis-specific protein (Homo sapiens) (UniProt Q58F21); details: Compound concentration 10.0 uM, Protein concentration 2.0 uM
[18] = target: Bromodomain testis-specific protein (Homo sapiens) (UniProt Q58F21); details: Compound concentration 10.0 uM, Protein concentration 2.0 uM; remark: listed apart in the source
[19] = target: Bromodomain and PHD finger-containing protein 3 (Homo sapiens) (UniProt Q9ULD4); details: Compound concentration 10.0 uM, Protein concentration 2.0 uM
[20] = target: Bromodomain and WD repeat-containing protein 3 (Homo sapiens) (UniProt Q6RI45); details: Compound concentration 10.0 uM, Protein concentration 2.0 uM
[21] = target: Histone acetyltransferase p300 (Homo sapiens) (UniProt Q09472); details: Compound concentration 10.0 uM, Protein concentration 2.0 uM
[22] = target: Histone acetyltransferase KAT2A (Homo sapiens) (UniProt Q92830); details: Compound concentration 10.0 uM, Protein concentration 2.0 uM
[23] = target: Histone acetyltransferase KAT2B (Homo sapiens) (UniProt Q92831); details: Compound concentration 10.0 uM, Protein concentration 2.0 uM
[24] = target: Histone-lysine N-methyltransferase 2A (Homo sapiens) (UniProt Q03164); details: Compound concentration 10.0 uM, Protein concentration 2.0 uM
[25] = target: Protein polybromo-1 (Homo sapiens) (UniProt Q86U86); details: Compound concentration 10.0 uM, Protein concentration 2.0 uM
[26] = target: Protein polybromo-1 (Homo sapiens) (UniProt Q86U86); details: Compound concentration 10.0 uM, Protein concentration 2.0 uM; remark: listed apart in the source
[27] = target: Protein polybromo-1 (Homo sapiens) (UniProt Q86U86); details: Compound concentration 10.0 uM, Protein concentration 2.0 uM; remark: listed apart in the source
[28] = target: Protein polybromo-1 (Homo sapiens) (UniProt Q86U86); details: Compound concentration 10.0 uM, Protein concentration 2.0 uM; remark: listed apart in the source
[29] = target: Protein polybromo-1 (Homo sapiens) (UniProt Q86U86); details: Compound concentration 10.0 uM, Protein concentration 2.0 uM; remark: listed apart in the source
[30] = target: Protein polybromo-1 (Homo sapiens) (UniProt Q86U86); details: Compound concentration 10.0 uM, Protein concentration 2.0 uM; remark: listed apart in the source
[31] = target: PH-interacting protein (Homo sapiens) (UniProt Q8WWQ0); details: Compound concentration 10.0 uM, Protein concentration 2.0 uM
[32] = target: SWI/SNF-related matrix-associated actin-dependent regulator of chromatin subfamily A member 2 (Homo sapiens) (UniProt P51531); details: Compound concentration 10.0 uM, Protein concentration 2.0 uM
[33] = target: SWI/SNF-related matrix-associated actin-dependent regulator of chromatin subfamily A member 4 (Homo sapiens) (UniProt P51532); details: Compound concentration 10.0 uM, Protein concentration 2.0 uM
[34] = target: Nuclear body protein SP140 (Homo sapiens) (UniProt Q13342); details: Compound concentration 10.0 uM, Protein concentration 2.0 uM
[35] = target: Nuclear body protein SP140-like protein (Homo sapiens) (UniProt Q9H930); details: Compound concentration 10.0 uM, Protein concentration 2.0 uM
[36] = target: Transcription initiation factor TFIID subunit 1 (Homo sapiens) (UniProt P21675); details: Compound concentration 10.0 uM, Protein concentration 2.0 uM
[37] = target: Transcription initiation factor TFIID subunit 1 (Homo sapiens) (UniProt P21675); details: Compound concentration 10.0 uM, Protein concentration 2.0 uM; remark: listed apart in the source
[38] = target: Transcription initiation factor TFIID subunit 1-like (Homo sapiens) (UniProt Q8IZX4); details: Compound concentration 10.0 uM, Protein concentration 2.0 uM
[39] = target: Transcription initiation factor TFIID subunit 1-like (Homo sapiens) (UniProt Q8IZX4); details: Compound concentration 10.0 uM, Protein concentration 2.0 uM; remark: listed apart in the source
[40] = target: Transcription intermediary factor 1-alpha (Homo sapiens) (UniProt O15164); details: Compound concentration 10.0 uM, Protein concentration 2.0 uM
[41] = target: Transcription intermediary factor 1-beta (Homo sapiens) (UniProt Q13263); details: Compound concentration 10.0 uM, Protein concentration 2.0 uM
[42] = target: Bromodomain-containing protein 4 (Homo sapiens) (UniProt O60885); details: Compound concentration 10.0 uM, Protein concentration 2.0 uM; remark: listed apart in the source
[43] = target: Transcription intermediary factor 1-alpha (Homo sapiens) (UniProt O15164); details: Compound concentration 10.0 uM, Protein concentration 2.0 uM; remark: listed apart in the source

Sequence of Protein polybromo-1 (Homo sapiens) (Q86U86 whole entry): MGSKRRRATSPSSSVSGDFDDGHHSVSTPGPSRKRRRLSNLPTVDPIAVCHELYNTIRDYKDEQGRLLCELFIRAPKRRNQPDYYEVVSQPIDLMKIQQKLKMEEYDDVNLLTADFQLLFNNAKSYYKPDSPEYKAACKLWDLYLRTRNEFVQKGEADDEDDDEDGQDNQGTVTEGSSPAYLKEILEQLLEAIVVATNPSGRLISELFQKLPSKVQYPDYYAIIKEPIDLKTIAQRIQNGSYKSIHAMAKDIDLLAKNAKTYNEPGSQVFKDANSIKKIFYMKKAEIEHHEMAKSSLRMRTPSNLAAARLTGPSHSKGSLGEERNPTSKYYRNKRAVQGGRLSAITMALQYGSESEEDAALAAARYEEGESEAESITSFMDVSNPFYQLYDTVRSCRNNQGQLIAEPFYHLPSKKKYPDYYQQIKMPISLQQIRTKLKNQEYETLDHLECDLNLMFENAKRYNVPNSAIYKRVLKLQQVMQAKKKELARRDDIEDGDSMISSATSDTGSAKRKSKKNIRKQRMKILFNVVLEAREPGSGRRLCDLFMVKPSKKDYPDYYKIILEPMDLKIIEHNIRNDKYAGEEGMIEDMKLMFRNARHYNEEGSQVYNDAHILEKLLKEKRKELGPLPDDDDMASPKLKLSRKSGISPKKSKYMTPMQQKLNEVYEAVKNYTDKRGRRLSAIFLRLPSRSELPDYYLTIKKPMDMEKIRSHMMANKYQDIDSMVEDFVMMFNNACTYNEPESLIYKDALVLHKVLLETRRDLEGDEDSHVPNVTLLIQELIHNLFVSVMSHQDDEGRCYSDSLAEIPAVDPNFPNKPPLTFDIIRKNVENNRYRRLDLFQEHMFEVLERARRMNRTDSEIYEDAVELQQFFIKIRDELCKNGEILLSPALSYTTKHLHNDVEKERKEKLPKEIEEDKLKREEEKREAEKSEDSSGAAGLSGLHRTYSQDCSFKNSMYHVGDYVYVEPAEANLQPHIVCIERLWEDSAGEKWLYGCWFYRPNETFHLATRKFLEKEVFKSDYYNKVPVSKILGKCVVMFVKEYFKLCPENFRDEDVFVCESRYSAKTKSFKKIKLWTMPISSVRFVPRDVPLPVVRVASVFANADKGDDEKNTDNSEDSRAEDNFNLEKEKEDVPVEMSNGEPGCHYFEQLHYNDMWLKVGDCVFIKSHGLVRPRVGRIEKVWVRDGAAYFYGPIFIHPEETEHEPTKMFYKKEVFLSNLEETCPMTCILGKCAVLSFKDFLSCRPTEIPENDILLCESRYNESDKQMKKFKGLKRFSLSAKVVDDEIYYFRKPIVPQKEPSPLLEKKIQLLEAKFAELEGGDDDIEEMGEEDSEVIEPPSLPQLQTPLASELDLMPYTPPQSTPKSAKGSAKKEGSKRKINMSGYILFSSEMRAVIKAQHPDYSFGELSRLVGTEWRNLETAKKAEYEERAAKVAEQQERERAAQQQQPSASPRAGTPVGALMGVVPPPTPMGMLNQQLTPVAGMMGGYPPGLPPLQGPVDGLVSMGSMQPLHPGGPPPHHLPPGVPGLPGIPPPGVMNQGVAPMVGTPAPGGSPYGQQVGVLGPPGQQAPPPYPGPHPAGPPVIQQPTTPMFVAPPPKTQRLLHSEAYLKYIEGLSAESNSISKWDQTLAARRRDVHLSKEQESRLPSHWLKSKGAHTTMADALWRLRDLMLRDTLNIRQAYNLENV
Sequence of Transcription initiation factor TFIID subunit 1 (Homo sapiens) (P21675 whole entry): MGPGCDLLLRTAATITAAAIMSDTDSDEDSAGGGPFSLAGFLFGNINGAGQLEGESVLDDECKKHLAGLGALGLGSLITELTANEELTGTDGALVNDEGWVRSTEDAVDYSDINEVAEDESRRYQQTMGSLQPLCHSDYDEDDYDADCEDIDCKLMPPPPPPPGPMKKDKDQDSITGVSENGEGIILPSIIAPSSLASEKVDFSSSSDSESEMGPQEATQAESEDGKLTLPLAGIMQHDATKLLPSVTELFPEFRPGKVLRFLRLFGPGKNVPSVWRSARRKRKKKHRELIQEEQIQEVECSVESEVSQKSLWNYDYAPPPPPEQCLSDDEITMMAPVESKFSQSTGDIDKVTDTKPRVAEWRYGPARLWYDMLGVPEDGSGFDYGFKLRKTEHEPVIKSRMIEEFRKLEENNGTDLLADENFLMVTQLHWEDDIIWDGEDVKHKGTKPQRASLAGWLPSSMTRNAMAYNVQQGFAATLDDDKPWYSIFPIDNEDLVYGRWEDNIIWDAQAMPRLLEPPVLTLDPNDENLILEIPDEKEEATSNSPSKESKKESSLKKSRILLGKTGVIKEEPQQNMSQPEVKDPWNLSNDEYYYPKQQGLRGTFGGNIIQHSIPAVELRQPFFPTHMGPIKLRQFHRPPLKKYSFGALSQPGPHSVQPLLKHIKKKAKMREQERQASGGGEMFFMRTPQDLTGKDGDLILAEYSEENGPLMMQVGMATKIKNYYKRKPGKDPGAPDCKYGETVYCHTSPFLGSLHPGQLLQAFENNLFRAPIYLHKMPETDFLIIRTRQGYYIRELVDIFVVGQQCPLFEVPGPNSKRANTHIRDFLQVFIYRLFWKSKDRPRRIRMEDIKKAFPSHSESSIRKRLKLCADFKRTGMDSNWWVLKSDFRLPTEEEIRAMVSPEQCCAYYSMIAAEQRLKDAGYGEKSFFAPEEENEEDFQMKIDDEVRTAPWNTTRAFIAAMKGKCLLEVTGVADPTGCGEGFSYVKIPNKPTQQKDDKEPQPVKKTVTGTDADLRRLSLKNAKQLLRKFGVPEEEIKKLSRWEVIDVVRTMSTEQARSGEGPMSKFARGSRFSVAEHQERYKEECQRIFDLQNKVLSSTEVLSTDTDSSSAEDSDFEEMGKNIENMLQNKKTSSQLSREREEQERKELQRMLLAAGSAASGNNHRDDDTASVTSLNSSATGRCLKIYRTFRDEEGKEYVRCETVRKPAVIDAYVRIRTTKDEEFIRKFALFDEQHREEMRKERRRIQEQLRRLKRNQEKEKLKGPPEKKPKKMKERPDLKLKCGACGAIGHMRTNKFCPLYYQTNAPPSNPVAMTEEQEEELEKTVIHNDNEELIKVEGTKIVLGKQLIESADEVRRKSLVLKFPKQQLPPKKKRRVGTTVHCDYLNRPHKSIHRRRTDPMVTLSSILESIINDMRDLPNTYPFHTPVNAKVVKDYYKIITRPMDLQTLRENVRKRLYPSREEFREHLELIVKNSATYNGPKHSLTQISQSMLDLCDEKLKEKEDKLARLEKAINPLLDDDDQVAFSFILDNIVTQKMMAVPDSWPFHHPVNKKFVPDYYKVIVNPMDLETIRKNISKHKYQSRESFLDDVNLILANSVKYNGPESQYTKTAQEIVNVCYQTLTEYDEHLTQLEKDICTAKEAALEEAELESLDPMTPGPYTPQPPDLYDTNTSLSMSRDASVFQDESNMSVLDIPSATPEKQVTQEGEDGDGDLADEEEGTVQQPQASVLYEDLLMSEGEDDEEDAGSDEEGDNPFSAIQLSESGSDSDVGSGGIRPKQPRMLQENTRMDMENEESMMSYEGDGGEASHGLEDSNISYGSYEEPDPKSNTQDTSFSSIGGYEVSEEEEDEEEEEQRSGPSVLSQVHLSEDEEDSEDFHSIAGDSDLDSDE
Sequence of Bromodomain-containing protein 3 (Homo sapiens) (Q15059 2-726 limits assumed): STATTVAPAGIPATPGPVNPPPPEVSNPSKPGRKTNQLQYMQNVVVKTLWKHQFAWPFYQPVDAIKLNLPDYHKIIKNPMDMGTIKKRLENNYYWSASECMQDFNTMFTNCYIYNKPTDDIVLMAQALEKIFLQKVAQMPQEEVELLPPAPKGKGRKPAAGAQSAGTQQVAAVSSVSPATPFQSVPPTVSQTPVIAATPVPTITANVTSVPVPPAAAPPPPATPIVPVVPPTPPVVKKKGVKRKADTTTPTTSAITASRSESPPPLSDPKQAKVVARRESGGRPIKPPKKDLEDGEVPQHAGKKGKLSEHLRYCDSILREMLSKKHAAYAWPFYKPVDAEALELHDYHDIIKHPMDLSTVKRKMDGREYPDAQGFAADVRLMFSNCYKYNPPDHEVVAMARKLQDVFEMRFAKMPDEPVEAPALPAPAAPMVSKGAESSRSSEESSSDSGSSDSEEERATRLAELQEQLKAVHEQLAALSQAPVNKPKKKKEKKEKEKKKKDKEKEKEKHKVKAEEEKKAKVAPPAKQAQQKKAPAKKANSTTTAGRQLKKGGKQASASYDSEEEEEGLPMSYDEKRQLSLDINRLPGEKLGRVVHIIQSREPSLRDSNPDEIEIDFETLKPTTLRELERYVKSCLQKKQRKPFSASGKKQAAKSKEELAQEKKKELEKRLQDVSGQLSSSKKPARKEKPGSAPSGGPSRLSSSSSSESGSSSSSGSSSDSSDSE
Sequence of Bromodomain-containing protein 2 (Homo sapiens) (P25440 whole entry, looked up): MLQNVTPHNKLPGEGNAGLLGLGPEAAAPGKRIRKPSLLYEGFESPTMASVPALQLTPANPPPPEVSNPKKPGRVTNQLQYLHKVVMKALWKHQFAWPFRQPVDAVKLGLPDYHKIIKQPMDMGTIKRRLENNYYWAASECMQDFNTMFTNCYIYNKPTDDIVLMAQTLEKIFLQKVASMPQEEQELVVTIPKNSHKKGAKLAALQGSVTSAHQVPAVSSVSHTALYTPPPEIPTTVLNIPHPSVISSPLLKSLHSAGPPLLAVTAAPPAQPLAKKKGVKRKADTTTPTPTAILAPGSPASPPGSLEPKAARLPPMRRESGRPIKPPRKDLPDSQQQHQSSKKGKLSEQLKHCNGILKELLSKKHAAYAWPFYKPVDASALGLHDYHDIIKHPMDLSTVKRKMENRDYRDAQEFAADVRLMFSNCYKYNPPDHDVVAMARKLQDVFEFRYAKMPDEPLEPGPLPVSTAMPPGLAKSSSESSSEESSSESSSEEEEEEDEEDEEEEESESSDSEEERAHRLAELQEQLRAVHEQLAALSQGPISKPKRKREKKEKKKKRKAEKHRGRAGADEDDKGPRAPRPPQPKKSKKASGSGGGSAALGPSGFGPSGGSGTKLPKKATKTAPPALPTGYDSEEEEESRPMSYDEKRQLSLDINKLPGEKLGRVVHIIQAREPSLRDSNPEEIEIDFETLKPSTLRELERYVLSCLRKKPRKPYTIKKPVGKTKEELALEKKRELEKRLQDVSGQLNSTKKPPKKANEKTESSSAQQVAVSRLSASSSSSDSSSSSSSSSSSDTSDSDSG

`COc1ccccc1C(=O)Nc1cc2c(cc1N1CCCC1)n(C)c(=O)n2C` was tested, and the inhibition [1] was 35.5%, the ΔTm [2] was 0.36 °C and the ΔTm [3] was -0.03 °C. For the same molecule, the ΔTm [4] was -0.04 °C, the ΔTm [5] was 0.5 °C and the ΔTm [6] was -0.03 °C. It also gave a ΔTm [7] of 0.5 °C, a ΔTm [8] of 0.88 °C and a ΔTm [9] of 0.31 °C. The ΔTm [10] was 0.75 °C, the ΔTm [11] was 0.74 °C and the ΔTm [12] was 0.33 °C. For the same molecule, the ΔTm [13] was 0.74 °C, the ΔTm [14] was 0.33 °C and the ΔTm [15] was 3.84 °C. It also gave a ΔTm [16] of 1.21 °C, a ΔTm [17] of 0.27 °C and a ΔTm [18] of 0.18 °C. For the same molecule, the ΔTm [19] was 2.36 °C and 1.34 °C, the ΔTm [20] was -0.2 °C and the ΔTm [21] was 0.9 °C. For the same molecule, the ΔTm [22] was 0.21 °C, the ΔTm [23] was 2.09 °C and the ΔTm [24] was 0.13 °C. It also gave a ΔTm [25] of 0.26 °C, a ΔTm [26] of -0.44 °C and a ΔTm [27] of 0.54 °C. For the same molecule, the ΔTm [28] was 0.73 °C, the ΔTm [29] was -0.35 °C and the ΔTm [30] was 0.03 °C. The ΔTm [31] was 0.71 °C, the ΔTm [32] was 0.18 °C and the ΔTm [33] was 0.2 °C. It also gave a ΔTm [34] of 0.2 °C, a ΔTm [35] of -0.24 °C and a ΔTm [36] of 0.9 °C. The ΔTm [37] was 0.33 °C, the ΔTm [38] was 0.31 °C and the ΔTm [39] was 0.79 °C. It also gave a ΔTm [40] of 1.35 °C, a ΔTm [41] of -0.53 °C and a ΔTm [42] of 1.37 °C. It also gave a ΔTm [43] of 0.72 °C.
